Measured values published in PMC10537368, “Design, Synthesis, and Biological Evaluation of Novel 3-Cyanopyridone/Pyrazoline Hybrids as Potential Apoptotic Antiproliferative Agents Targeting EGFR/BRAF^V600E Inhibitory Pathways” (Molecules, 2023).
Several values for one entry are separate records, joined by “and”; a condition that tells them apart may be missing. Equal values may be shown once. Read-outs that look alike come from different tables or passages of the source.

What was measured:
[1] = Cell viability MTT assay on MCF-10A normal cells; type: cell-based; settings: human, MCF-10A mammary gland epithelial normal cells, MCF-10A cells, four days of incubation
Procedure: The viability of new compounds 21–30 was examined using the human mammary gland epithelial (MCF-10A) cell line. The cell viability of compounds 21–30 was assessed using the MTT assay after four days of incubation on MCF-10A cells.
The human mammary gland epithelial (MCF-10A) normal cell line was utilized to investigate the viability of new derivatives 21–30 [56]. For more information, see Supplementary Materials Files.

[2] = tested on: lung cancer (A-549) cell line; assay: Antiproliferative MTT assay, A-549; type: cell-based; settings: Homo sapiens, A549; A-549, MTT; read-out: Antiproliferative Activity IC50 ± SEM, A-549
Text: (§1) The median inhibitory concentration (IC50) and GI50 [58]

[3] = tested on: breast cancer (MCF-7) cell line; assay: Antiproliferative MTT assay, MCF-7; type: cell-based; settings: Homo sapiens, MCF7; MCF-7, MTT; read-out: Antiproliferative Activity IC50 ± SEM, MCF-7
Text: as §1

[4] = tested on: pancreatic cancer (Panc-1) cell line; assay: Antiproliferative MTT assay, Panc-1; type: cell-based; settings: Homo sapiens; Panc-1, MTT; read-out: Antiproliferative Activity IC50 ± SEM, Panc-1
Text: as §1

[5] = tested on: colon cancer (HT-29) cell line; assay: Antiproliferative MTT assay, HT-29; type: cell-based; settings: Homo sapiens; HT-29, MTT; read-out: Antiproliferative Activity IC50 ± SEM, HT-29
Text: as §1

[6] = tested on: four human cancer cell lines (A-549, MCF-7, Panc-1, HT-29); assay: Antiproliferative MTT assay, average over four cancer cell lines (GI50); type: cell-based; settings: for IC50: Homo sapiens, average IC50 against the four cancer cell lines
BRAF^V600E [7] = target: T1, BRAF^V600E (Homo sapiens, UniProt P15056, V600E); assay: BRAF^V600E inhibitory assay; type: biochemical; settings: read-out: BRAF^V600E Inhibition IC50 ± SEM
[8] = tested on: Caspase-3 in human epithelial cancer cell line (A-594); assay: Caspase 3 activation assay; type: cell-based; settings: for Caspase-3 Conc: A-594 cell line; for Caspase-3 Fold Change: A-594, vs untreated control cells
Text: Caspases are essential for the induction and maintenance of apoptosis. Caspase-3 is an important caspase that cleaves several cell proteins, causing apoptosis.
See Supplementary Materials Files.

EGFR [9] = target: T2, EGFR (Homo sapiens, UniProt P00533); assay: EGFR inhibitory assay; settings: for fold more potent than the reference Erlotinib (EGFR IC50): IC50 ratio vs Erlotinib
[10] = tested on: Caspase-8 in A-594 cancer cell line; assay: Caspase-8 level assay; type: cell-based, human; settings: for Caspase-8 Fold Change: A-594, vs untreated control; for Caspase-8 Conc: A-594 cell line
[11] = tested on: Bax in A-594 cancer cell line; assay: Bax level assay; type: cell-based, human; settings: for Bax Fold Change: A-594, vs untreated control; for Bax Conc: A-594 cell line
[12] = tested on: Bcl-2 in A-594 cancer cell line; assay: Bcl-2 level assay; type: cell-based, human; settings: for Bcl-2 Fold Reduction: A-594, vs untreated control; for Bcl-2 Conc: A-594 cell line
Text: […]. […]. Compared to the untreated control cell, compounds 28 and 30 elevated caspase-8 levels by 25- and 28-fold, respectively.
[…]. Compounds 21, 28, and 30 were investigated as caspase-3, caspase-8, Bax activators, and Bcl-2 down-regulators against the human epithelial cancer cell line (A-594). See Supplementary Materials Files.

BRAF^V600E [13] = target: T1, BRAF^V600E; settings: cited from earlier work
A-549 cancer = tested on: A-549 cancer; design: method as in PMID 37240450; settings: read-out: IC50 against A-549 cancer; cited from earlier work
Panc-1 cancer = tested on: Panc-1 cancer; design: method as in PMID 36526595; settings: read-out: IC50 against Panc-1 cancer; cited from earlier work
EGFR [14] = target: T2, EGFR; settings: read-out: EGFR inhibition IC50; cited from earlier work

T1 sequence (P15056 whole entry V600E): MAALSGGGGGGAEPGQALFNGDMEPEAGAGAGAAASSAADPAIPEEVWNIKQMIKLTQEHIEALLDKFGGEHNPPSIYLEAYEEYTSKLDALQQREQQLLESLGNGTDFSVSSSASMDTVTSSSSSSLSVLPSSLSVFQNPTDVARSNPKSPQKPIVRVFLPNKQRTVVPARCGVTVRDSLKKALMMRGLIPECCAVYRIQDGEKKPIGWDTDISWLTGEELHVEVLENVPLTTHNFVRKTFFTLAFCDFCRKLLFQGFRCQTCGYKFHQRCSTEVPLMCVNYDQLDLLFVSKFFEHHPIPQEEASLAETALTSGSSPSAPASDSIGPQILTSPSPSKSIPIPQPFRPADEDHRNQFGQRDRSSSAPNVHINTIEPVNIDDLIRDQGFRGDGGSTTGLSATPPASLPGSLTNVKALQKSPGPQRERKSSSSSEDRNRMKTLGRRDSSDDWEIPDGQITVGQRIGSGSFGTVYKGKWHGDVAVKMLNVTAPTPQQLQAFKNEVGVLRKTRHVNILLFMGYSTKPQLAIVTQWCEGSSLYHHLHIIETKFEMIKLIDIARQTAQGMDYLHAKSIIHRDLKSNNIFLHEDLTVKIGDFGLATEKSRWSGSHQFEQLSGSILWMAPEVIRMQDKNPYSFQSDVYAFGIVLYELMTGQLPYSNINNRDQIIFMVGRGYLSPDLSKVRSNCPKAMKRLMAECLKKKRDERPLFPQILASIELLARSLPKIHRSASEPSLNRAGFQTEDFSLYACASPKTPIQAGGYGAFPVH
T2 sequence (P00533 25-1210): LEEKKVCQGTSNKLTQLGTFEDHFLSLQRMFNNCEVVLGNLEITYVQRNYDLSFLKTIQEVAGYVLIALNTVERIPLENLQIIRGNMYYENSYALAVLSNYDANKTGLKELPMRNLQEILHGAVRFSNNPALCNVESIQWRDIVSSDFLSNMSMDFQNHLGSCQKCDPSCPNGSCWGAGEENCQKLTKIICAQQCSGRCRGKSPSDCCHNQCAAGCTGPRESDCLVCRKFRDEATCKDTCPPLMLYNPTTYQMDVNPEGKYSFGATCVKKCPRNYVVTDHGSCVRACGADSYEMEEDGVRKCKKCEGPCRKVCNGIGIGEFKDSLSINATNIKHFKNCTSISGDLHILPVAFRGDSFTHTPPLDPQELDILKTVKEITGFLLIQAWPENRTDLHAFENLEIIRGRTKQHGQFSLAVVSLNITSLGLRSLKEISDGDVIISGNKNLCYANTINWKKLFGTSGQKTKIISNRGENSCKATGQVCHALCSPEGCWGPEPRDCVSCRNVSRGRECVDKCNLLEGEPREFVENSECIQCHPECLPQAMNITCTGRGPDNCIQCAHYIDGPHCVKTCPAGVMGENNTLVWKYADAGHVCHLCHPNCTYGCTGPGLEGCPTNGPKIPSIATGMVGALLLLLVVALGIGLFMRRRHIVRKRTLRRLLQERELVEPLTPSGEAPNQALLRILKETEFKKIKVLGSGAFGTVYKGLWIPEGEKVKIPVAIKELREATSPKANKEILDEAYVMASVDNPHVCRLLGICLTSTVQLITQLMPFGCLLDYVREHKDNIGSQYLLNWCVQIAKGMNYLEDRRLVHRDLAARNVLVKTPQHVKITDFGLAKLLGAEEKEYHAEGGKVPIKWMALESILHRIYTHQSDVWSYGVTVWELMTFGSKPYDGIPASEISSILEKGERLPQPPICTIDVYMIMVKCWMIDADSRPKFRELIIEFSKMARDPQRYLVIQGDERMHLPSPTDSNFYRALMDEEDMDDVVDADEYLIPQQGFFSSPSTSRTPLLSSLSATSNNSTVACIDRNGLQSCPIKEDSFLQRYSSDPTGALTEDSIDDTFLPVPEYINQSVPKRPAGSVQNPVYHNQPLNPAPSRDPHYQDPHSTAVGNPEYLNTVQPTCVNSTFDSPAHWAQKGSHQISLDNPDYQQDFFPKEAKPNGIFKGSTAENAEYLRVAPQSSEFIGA

IC50 [2] | IC50 [3] | IC50 [4] | IC50 [5] | IC50 [6] | IC50 (BRAF^V600E [7]) | IC50 (EGFR [9]) | SMILES | viability at 4 days, 50 µM [1] | other results
26 ± 2 nM | 30 ± 3 nM | 28 ± 2 nM | 28 ± 2 nM | 28 nM | 73 ± 6 nM | 72 ± 5 nM | N#Cc1c(-c2ccc(Cl)cc2)cc(-c2ccc(Cl)cc2)n(CC(=O)Nc2ccc(C3=NNC(c4ccccc4)C3)cc2)c1=O (centres unmarked) [Compound 21, 2-(3-Cyano-4,6-bis(4-chlorophenyl)-2-oxopyridin-1(2H)-yl)-N-(4-(5-phenyl-4,5-dihydro-1H-pyrazol-3-yl)phenyl)acetamide] | 90% | Caspase-3 Conc [8]: 530 ± 5 pg/mL
29 ± 2 nM | 34 ± 3 nM | 32 ± 3 nM | 32 ± 3 nM | 32 nM | – | – | N#Cc1c(-c2ccc(Cl)cc2)cc(-c2ccc(Cl)cc2)n(CC(=O)Nc2ccc(C3=NNC(c4ccc(Cl)cc4)C3)cc2)c1=O (centres unmarked) [Compound 23, 2-(3-Cyano-4,6-bis(4-chlorophenyl)-2-oxopyridin-1(2H)-yl)-N-(4-(5-(4-chlorophenyl)-4,5-dihydro-1H-pyrazol-3-yl)phenyl)acetamide] | 91% | –
27 ± 2 nM | 31 ± 3 nM | 29 ± 2 nM | 28 ± 2 nM | 29 nM | 77 ± 6 nM | 73 ± 5 nM | COc1ccc(-c2cc(-c3ccc(OC)c(OC)c3)c(C#N)c(=O)n2CC(=O)Nc2ccc(C3=NNC(c4ccc(OC)c(OC)c4)C3)cc2)cc1 (centres unmarked) [Compound 24, 2-(3-Cyano-4-(3,4-dimethoxyphenyl)-6-(4-methoxyphenyl)-2-oxopyridin-1(2H)-yl)-N-(4-(5-(3,4-dimethoxyphenyl)-4,5-dihydro-1H-pyrazol-3-yl)phenyl)acetamide] | 90% | –
40 ± 3 nM | 45 ± 4 nM | 42 ± 4 nM | 42 ± 4 nM | 42 nM | – | – | COc1ccc(C2CC(c3ccc(NC(=O)Cn4c(-c5ccc(Cl)cc5)cc(-c5ccc(Cl)cc5)c(C#N)c4=O)cc3)=NN2)cc1 (centres unmarked) [Compound 25, 2-(3-Cyano-4,6-bis(4-chlorophenyl)-2-oxopyridin-1(2H)-yl)-N-(4-(5-(4-methoxyphenyl)-4,5-dihydro-1H-pyrazol-3-yl)phenyl)acetamide] | 88% | –
35 ± 3 nM | 40 ± 4 nM | 36 ± 3 nM | 36 ± 3 nM | 37 nM | – | – | Cc1ccc(C2CC(c3ccc(NC(=O)Cn4c(-c5ccc(Cl)cc5)cc(-c5ccc(Cl)cc5)c(C#N)c4=O)cc3)=NN2)c(C)c1 (centres unmarked) [Compound 26, 2-(3-Cyano-4,6-bis(4-chlorophenyl)-2-oxopyridin-1(2H)-yl)-N-(4-(5-(2,4-dimethylphenyl)-4,5-dihydro-1H-pyrazol-3-yl)phenyl)acetamide] | 92% | –
36 ± 3 nM | 42 ± 4 nM | 38 ± 3 nM | 38 ± 3 nM | 38 nM | – | – | N#Cc1c(-c2ccc(Cl)cc2)cc(-c2ccc(Cl)cc2)n(CC(=O)Nc2ccc(C3=NNC(c4ccc(Cl)cc4Cl)C3)cc2)c1=O (centres unmarked) [Compound 27, 2-(3-Cyano-4,6-bis(4-chlorophenyl)-2-oxopyridin-1(2H)-yl)-N-(4-(5-(2,4-dichlorophenyl)-4,5-dihydro-1H-pyrazol-3-yl)phenyl)acetamide] | 88% | –
27 ± 2 nM | 31 ± 3 nM | 30 ± 3 nM | 30 ± 3 nM | 30 nM | 80 ± 7 nM | 75 ± 5 nM | COc1ccc(C2CC(c3ccc(NC(=O)Cn4c(-c5ccc(Cl)cc5)cc(-c5ccc(Cl)cc5)c(C#N)c4=O)cc3)=NN2)cc1OC (centres unmarked) [Compound 29, 2-(3-Cyano-4,6-bis(4-chlorophenyl)-2-oxopyridin-1(2H)-yl)-N-(4-(5-(3,4-dimethoxyphenyl)-4,5-dihydro-1H-pyrazol-3-yl)phenyl)acetamide] | 91% | –
– | – | – | – | – | – | – | COc1ccc(C2CC(c3ccc(OCC(=O)Nc4ccc(C5=NNC(c6ccc(OC)c(OC)c6)C5)cc4)cc3)=NN2)cc1 (centres unmarked) [Compound II] | – | IC50 (BRAF^V600E [13]; read-out: BRAF^V600E IC50): 93 nM; IC50 (A-549 cancer): 1000 nM
– | – | – | – | – | – | – | COc1ccc(/C=C/C(=O)c2ccc(NC(=O)Cn3c(-c4ccc(OC)c(OC)c4)cc(-c4ccc(OC)c(OC)c4)c(C#N)c3=O)cc2)cc1OC [Compound I] | – | IC50 (Panc-1 cancer): 800 nM; IC50 (EGFR [14]): 89 nM; IC50 (BRAF^V600E [13]; read-out: BRAF^V600E inhibition IC50): 65 nM
– | – | – | – | – | – | – | CN[C@@H]1C[C@H]2O[C@@](C)([C@@H]1OC)n1c3ccccc3c3c4c(c5c6ccccc6n2c5c31)C(=O)NC4 [Staurosporine, reference compound] | – | Caspase-3 Fold Change [8]: 7 fold; Caspase-8 Fold Change [10]: 21 fold; Bax Fold Change [11]: 32 fold; Bcl-2 Fold Reduction [12]: 5 fold; Bcl-2 Conc [12]: 1.00 ng/mL
– | – | – | – | – | – | – | COc1cccc2c1C(=O)c1c(O)c3c(c(O)c1C2=O)C[C@@](O)(C(=O)CO)C[C@@H]3O[C@H]1C[C@H](N)[C@H](O)[C@H](C)O1 [doxorubicin] | – | IC50 (Panc-1 cancer): 1000 nM; IC50 (A-549 cancer): 1400 nM

SMILES | IC50 [2] | IC50 [3] | IC50 [4] | IC50 [5] | IC50 [6] | IC50 (BRAF^V600E [7]) | IC50 (EGFR [9]) | viability at 4 days, 50 µM [1] | other results
COc1ccc(-c2cc(-c3ccc(OC)c(OC)c3)n(CC(=O)Nc3ccc(C4=NNC(c5ccccc5)C4)cc3)c(=O)c2C#N)cc1OC (centres unmarked) [Compound 22, 2-(3-Cyano-4,6-bis(3,4-dimethoxyphenyl)-2-oxopyridin-1(2H)-yl)-N-(4-(5-phenyl-4,5-dihydro-1H-pyrazol-3-yl)phenyl)acetamide] | 32 ± 3 nM | 35 ± 3 nM | 34 ± 3 nM | 32 ± 3 nM | 33 nM | – | – | 89% | fold less potent than compound 30 (GI50) ([6]; GI50 ratio vs compound 30): 1.3 fold
COc1ccc(C2CC(c3ccc(NC(=O)Cn4c(-c5ccc(OC)c(OC)c5)cc(-c5ccc(OC)c(OC)c5)c(C#N)c4=O)cc3)=NN2)cc1 (centres unmarked) [Compound 28, 2-(3-Cyano-4,6-bis(3,4-dimethoxyphenyl)-2-oxopyridin-1(2H)-yl)-N-(4-(5-(4-methoxyphenyl)-4,5-dihydro-1H-pyrazol-3-yl)phenyl)acetamide] | 25 ± 2 nM | 30 ± 3 nM | 26 ± 2 nM | 26 ± 2 nM | 27 nM | 65 nM and 69 nM | 70 ± 5 nM | 89% | Caspase-3 Fold Change [8]: ~9 fold; Caspase-3 Conc [8]: 590 ± 5 pg/mL and 595 ± 5 pg/mL; Caspase-8 Fold Change [10]: 25 fold; Caspase-8 Conc [10]: 2.25 ng/mL; Bax Fold Change [11]: 36 fold; Bax Conc [11]: 325 pg/mL; Bcl-2 Fold Reduction [12]: 6 fold; Bcl-2 Conc [12]: 0.80 ng/mL; fold more potent than the reference Erlotinib (EGFR IC50) (EGFR [9]): 1.2 fold
COc1ccc(-c2cc(-c3ccc(OC)c(OC)c3)n(CC(=O)Nc3ccc(C4=NNC(c5ccc(OC)c(OC)c5)C4)cc3)c(=O)c2C#N)cc1OC (centres unmarked) [Compound 30, 2-(3-Cyano-4,6-bis(3,4-dimethoxyphenyl)-2-oxopyridin-1(2H)-yl)-N-(4-(5-(3,4-dimethoxyphenyl)-4,5-dihydro-1H-pyrazol-3-yl)phenyl)acetamide] | 23 ± 2 nM | 28 ± 2 nM | 24 ± 2 nM | 24 ± 2 nM | 25 nM | 69 nM and 65 nM | 68 ± 4 nM | 90% | fold more potent than the reference Erlotinib (GI50) ([6]; GI50 ratio vs Erlotinib): 1.3 fold; Caspase-3 Fold Change [8]: ~11 fold; Caspase-3 Conc [8]: 710 ± 6 pg/mL; Caspase-8 Fold Change [10]: 28 fold; Caspase-8 Conc [10]: 2.50 ng/mL; Bax Fold Change [11]: 38 fold; Bax Conc [11]: 345 pg/mL; Bcl-2 Fold Reduction [12]: 8 fold; Bcl-2 Conc [12]: 0.65 ng/mL; fold more potent than the reference Erlotinib (EGFR IC50) (EGFR [9]): 1.2 fold
C#Cc1cccc(Nc2ncnc3cc(OCCOC)c(OCCOC)cc23)c1 [Erlotinib, reference compound] | 30 ± 3 nM | 40 ± 3 nM | 30 ± 3 nM | 30 ± 3 nM | – | – | – | – | –
